Measured values from article PMC11956013, “Structure–Activity Relationships and Evaluation of 2-(Heteroaryl-cycloalkyl)-1H-indoles as Tauopathy Positron Emission Tomography Radiotracers” (Journal of Medicinal Chemistry, 2025).

Assays:
[1] = test system: Na+ channel (site 2); assay: Eurofins panel: Na+ channel (site 2) (antagonist radioligand); format: binding; details: compound concentration 1.0E-05 M
[2] = test system: NMDA; assay: Eurofins panel: NMDA (antagonist radioligand); format: binding; details: compound concentration 1.0E-05 M
[3] = molecular target: T1, tyrosine hydroxylase (Rattus norvegicus, UniProt P04177); assay: Eurofins panel: tyrosine hydroxylase; format: biochemical; details: compound concentration 1.0E-05 M
T1 construct: purchased Eurofins (CNS SafetyScreen panel, contract assay)

[4] = molecular target: T2, GABAB(B1b/B2) Human GABA B GPCR (Homo sapiens, UniProt Q9UBS5); assay: GABAB(B1b/B2) Human GABA B GPCR Mass Spectrometry Binding (Antagonist Ligand) Assay, Cerep, assay 4699
T2 construct: Eurofins (Cerep) assay 4699

[5] = test system: Ca2+ channel (N); format: binding
[6] = molecular target: T3, M1 (h) (Homo sapiens, UniProt P11229); assay: biochemical; format: binding
T3 construct: purchased Eurofins (CNS SafetyScreen panel, contract assay) assay 91

[7] = molecular target: N neuronal alpha4beta2 (h) (Homo sapiens, UniProt P17787+P43681); details: compound concentration 1.0E-05 M
[8] = molecular target: 5-HT7 (h) (Homo sapiens, UniProt P34969); details: 1.0E-05 M; 5-HT7 (h) (agonist radioligand)
[9] = molecular target: norepinephrine transporter (h) (Homo sapiens, UniProt P23975); details: compound concentration 1.0E-05 M
[10] = molecular target: EGFR kinase (h) (Homo sapiens, UniProt P00533); details: Enzymatic activity; 1.0E-05 M
[11] = test system: TNF-alpha (h); details: compound concentration 1.0E-05 M
[12] = molecular target: Y2 (h) (Homo sapiens, UniProt P49146); details: compound concentration 1.0E-05 M
[13] = molecular target: beta1 (h) (Homo sapiens, UniProt P08588); details: 1.0E-05 M; beta1 (h) (agonist radioligand)
[14] = molecular target: CYP2D6 (Homo sapiens, UniProt P10635); assay: in vitro; details: human liver microsomes, probe dextromethorphan
[15] = molecular target: CYP3A (Homo sapiens, UniProt P08684); assay: in vitro; details: human liver microsomes, probe midazolam
[16] = molecular target: CB1 (h) (Homo sapiens, UniProt P21554); assay: biochemical
[17] = molecular target: CCK1 (CCKA) (h) (Homo sapiens, UniProt P32238); assay: biochemical
[18] = molecular target: CCK2 (CCKB) (h) (Homo sapiens, UniProt P32239); assay: biochemical
[19] = molecular target: D4.4 (h) (Homo sapiens, UniProt P21917); assay: biochemical
[20] = molecular target: ETA (h) (Homo sapiens, UniProt P25101); assay: biochemical
[21] = molecular target: M2 (h) (Homo sapiens, UniProt P08172); assay: biochemical
[22] = molecular target: beta2 (h) (Homo sapiens, UniProt P07550); assay: Eurofins panel: beta2 (h) (antagonist radioligand); details: 1.0E-05 M
[23] = molecular target: T4, M5 (h) (Homo sapiens, UniProt P08912); assay: M5 (h) (antagonist radioligand), Eurofins assay 97
T4 sequence (P08912 1-532): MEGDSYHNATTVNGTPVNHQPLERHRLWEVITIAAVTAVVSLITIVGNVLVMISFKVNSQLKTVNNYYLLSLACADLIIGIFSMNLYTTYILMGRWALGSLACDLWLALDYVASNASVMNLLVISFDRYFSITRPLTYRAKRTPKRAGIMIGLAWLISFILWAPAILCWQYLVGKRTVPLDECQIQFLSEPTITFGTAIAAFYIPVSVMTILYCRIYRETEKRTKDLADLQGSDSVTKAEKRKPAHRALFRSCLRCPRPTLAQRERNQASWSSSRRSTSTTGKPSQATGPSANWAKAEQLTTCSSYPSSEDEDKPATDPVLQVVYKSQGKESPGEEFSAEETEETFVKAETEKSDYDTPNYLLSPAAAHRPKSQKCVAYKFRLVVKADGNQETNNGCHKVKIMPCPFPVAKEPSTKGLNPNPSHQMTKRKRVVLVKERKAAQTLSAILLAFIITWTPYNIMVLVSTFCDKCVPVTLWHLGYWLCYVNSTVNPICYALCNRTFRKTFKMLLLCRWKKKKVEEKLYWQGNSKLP

[24] = molecular target: T5, alpha1A (h) (Homo sapiens, UniProt P35348); assay: Eurofins panel: alpha1A (h) (antagonist radioligand); details: 1.0E-05 M; alpha1A (h) (antagonist radioligand)
T5 sequence (P35348 1-466): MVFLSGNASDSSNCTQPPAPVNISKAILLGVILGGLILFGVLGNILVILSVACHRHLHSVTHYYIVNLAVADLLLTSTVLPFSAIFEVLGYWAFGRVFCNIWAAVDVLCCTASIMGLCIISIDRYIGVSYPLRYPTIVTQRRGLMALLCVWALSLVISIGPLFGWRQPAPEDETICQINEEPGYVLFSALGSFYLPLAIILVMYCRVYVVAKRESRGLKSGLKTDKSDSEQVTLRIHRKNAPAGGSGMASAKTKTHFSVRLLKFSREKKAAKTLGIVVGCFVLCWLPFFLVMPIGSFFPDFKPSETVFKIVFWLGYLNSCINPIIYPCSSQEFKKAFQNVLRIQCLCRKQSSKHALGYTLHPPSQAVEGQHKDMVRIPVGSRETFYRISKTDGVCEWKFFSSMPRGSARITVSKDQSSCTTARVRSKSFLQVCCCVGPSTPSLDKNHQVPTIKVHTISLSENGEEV

[25] = molecular target: MT1 (ML1A) (h) (Homo sapiens, UniProt P48039); assay: MT1 (ML1A) (h) (agonist radioligand), Eurofins assay 1538
[26] = molecular target: 5-HT transporter (h) (Homo sapiens, UniProt P31645); assay: Eurofins panel: 5-HT transporter (h) (antagonist radioligand); details: 1.0E-05 M

T2 sequence (Q9UBS5 1-844 isoform Q9UBS5-2): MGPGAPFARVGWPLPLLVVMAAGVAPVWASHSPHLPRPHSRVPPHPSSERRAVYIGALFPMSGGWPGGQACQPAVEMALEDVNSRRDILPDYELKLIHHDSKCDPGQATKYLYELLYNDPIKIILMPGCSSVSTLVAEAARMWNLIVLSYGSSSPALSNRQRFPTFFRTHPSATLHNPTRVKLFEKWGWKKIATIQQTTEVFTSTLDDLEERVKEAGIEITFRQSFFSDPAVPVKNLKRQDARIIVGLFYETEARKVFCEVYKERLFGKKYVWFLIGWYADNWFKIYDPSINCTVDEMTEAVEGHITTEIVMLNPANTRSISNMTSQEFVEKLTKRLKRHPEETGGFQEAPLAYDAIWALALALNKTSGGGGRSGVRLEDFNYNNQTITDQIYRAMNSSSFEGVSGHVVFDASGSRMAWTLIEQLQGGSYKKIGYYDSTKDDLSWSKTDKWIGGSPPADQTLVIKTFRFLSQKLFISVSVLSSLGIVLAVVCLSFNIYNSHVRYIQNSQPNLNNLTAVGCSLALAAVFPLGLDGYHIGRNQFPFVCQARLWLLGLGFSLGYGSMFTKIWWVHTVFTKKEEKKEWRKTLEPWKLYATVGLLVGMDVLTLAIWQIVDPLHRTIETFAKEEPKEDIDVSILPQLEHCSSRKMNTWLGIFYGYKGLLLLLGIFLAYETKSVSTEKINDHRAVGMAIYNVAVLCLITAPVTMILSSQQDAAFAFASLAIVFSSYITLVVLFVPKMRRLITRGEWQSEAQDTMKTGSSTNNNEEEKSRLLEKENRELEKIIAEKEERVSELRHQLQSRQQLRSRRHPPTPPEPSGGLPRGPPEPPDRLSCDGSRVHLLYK
T2 sequence (O75899 42-941 partner): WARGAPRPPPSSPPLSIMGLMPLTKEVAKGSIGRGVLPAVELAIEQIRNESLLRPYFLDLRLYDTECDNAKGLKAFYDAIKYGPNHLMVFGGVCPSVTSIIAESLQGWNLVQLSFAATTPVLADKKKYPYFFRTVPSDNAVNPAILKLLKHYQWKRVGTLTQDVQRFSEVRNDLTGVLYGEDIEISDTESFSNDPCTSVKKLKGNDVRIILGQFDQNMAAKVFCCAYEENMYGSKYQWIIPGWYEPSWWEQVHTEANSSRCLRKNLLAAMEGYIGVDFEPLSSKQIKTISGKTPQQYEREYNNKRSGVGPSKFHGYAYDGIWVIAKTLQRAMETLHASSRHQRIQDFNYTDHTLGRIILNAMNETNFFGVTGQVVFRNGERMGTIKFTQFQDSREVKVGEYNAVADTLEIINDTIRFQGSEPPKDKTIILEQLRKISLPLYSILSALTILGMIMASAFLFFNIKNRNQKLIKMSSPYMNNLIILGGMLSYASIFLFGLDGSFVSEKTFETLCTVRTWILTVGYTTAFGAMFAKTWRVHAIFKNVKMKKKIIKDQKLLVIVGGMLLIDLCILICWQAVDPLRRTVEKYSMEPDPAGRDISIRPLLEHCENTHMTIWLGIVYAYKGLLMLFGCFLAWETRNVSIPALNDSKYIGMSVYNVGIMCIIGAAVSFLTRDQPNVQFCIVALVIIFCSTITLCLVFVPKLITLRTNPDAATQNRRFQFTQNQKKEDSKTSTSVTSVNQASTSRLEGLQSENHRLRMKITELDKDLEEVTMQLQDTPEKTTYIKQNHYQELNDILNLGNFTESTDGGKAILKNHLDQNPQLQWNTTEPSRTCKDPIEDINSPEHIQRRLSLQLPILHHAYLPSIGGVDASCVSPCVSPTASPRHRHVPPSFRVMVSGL
T1 sequence (P04177 whole entry): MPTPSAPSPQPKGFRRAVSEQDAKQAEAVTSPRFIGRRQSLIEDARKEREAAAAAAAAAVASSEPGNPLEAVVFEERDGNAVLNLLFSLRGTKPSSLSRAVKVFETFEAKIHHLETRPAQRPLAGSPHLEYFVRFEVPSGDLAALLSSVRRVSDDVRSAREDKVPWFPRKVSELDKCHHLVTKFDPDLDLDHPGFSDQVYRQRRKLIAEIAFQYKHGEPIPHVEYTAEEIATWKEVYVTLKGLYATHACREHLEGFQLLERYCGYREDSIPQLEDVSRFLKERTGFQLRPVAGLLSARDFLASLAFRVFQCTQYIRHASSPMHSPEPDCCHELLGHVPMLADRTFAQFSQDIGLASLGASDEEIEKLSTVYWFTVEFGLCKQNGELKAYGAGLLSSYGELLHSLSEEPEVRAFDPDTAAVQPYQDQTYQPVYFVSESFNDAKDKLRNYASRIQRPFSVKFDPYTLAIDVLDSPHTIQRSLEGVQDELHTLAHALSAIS
N neuronal alpha4beta2 (h), sequence (P43681 29-627): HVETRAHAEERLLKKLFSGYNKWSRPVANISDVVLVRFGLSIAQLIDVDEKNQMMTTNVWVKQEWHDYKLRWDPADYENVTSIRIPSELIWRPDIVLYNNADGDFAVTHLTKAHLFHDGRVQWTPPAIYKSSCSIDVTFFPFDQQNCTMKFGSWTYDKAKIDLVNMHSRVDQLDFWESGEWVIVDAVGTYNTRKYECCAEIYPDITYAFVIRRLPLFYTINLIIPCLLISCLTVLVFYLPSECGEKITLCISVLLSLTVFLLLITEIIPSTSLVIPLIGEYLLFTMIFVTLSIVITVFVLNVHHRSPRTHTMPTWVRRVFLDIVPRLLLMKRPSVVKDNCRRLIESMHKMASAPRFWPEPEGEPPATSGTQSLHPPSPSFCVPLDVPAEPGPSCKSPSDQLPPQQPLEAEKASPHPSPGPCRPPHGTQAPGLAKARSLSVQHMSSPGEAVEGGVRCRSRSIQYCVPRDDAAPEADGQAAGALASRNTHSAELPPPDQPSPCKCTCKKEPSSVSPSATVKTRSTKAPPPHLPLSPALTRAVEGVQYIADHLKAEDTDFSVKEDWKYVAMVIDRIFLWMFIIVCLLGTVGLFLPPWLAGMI
N neuronal alpha4beta2 (h), sequence (P17787 26-502): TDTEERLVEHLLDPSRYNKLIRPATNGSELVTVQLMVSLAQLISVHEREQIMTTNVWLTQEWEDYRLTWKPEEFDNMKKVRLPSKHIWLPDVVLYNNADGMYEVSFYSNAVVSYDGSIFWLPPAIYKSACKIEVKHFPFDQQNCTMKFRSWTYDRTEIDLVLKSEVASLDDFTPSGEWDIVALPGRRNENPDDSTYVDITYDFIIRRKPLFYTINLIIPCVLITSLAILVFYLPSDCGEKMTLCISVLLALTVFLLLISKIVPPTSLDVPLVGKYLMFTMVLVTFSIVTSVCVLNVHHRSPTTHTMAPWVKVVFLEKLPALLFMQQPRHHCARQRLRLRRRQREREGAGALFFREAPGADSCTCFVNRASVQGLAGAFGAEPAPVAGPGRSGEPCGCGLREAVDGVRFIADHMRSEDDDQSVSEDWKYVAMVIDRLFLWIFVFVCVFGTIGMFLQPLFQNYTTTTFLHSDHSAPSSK
CB1 (h), sequence (P21554 whole entry): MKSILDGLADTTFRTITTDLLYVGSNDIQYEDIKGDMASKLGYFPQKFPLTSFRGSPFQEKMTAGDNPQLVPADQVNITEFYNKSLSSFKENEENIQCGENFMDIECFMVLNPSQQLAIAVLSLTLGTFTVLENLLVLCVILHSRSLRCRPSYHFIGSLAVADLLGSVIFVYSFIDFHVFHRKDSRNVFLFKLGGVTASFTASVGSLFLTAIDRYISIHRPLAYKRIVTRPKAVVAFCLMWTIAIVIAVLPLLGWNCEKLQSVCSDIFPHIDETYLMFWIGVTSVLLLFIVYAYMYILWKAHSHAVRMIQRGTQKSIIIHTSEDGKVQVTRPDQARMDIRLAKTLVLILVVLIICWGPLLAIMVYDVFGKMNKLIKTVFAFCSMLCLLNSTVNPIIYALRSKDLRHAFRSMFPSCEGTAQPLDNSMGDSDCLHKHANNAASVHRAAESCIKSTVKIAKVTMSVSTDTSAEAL
beta2 (h), sequence (P07550 whole entry): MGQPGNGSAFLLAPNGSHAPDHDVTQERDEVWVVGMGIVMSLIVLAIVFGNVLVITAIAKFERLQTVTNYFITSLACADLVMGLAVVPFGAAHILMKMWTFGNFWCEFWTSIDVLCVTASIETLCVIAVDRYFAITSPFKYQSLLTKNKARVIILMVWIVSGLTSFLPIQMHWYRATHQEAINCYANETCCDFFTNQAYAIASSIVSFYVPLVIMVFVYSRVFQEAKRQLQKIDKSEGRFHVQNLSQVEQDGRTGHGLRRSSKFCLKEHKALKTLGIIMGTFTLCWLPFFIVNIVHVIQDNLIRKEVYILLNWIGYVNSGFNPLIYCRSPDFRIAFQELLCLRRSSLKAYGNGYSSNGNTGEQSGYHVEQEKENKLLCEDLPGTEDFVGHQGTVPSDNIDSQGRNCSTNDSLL
Y2 (h), sequence (P49146 whole entry): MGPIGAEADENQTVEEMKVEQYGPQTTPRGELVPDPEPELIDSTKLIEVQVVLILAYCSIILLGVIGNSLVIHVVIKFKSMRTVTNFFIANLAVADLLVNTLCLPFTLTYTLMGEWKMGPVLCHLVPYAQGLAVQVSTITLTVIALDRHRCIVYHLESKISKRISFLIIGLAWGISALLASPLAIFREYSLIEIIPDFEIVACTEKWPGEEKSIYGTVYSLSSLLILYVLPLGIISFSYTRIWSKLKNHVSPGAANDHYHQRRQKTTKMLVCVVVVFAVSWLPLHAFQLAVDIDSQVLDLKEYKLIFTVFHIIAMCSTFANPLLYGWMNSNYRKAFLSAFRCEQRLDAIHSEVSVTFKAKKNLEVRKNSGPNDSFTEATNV
D4.4 (h), sequence (P21917 whole entry): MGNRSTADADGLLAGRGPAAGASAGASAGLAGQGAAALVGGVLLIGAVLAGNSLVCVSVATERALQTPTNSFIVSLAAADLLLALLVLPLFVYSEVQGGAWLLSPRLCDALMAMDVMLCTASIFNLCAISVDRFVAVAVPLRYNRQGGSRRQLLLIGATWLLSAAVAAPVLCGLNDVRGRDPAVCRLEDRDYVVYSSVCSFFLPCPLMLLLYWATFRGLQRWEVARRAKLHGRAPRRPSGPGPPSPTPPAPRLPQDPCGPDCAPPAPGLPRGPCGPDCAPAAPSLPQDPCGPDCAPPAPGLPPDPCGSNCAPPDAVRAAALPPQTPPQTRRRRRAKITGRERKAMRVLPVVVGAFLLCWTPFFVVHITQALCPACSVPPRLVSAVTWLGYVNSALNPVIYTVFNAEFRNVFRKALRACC

Fc1nc(N2CCOCC2)ccc1-c1cc2ccccc2[nH]1 [Compound 75, 4-(6-Fluoro-5-(1H-indol-2-yl)pyridin-2-yl)morpholine]
% Inhibition, Specific binding [1]: -1.89E+01%
% Inhibition, Specific binding [2]: -1.90E-01%
% Inhibition, Enzymatic activity [3]: -8.91E+00%
inhibition at 10 µM [4]: 18.1%
% Inhibition, Specific binding [5]: -3.62E+00%
inhibition at 10 µM [6]: -8.86%
% Inhibition, Specific binding [7]: -8.72E+00%
% Inhibition, Specific binding [8]: -1.16E+00%
% Inhibition, Specific binding [9]: -1.11E+01%
% Inhibition [10]: 16.5474%
% Inhibition, Specific binding [11]: 0.1083%
% Inhibition, Specific binding [12]: 3.943%
% Inhibition, Specific binding [13]: 12.2039%
inhibition at 10 µM [14]: 13.6%
inhibition at 10 µM [15]: -2.45%
inhibition at 10 µM [16]: -0.0362%
inhibition at 10 µM [17]: -78.7%
inhibition at 10 µM [18]: 2.96%
inhibition at 10 µM [19]: 20.4%
inhibition at 10 µM [20]: 4.29%
inhibition at 10 µM [21]: -12.8%
% Inhibition, Specific binding [22]: 4.9424%
inhibition at 10 µM [23]: 1.64%
% Inhibition, Specific binding [24]: 3.065%
inhibition at 10 µM [25]: 13%
% Inhibition, Specific binding [26]: -9.53E+00%
